Read-outs that look alike come from different tables or passages of the source.
How the values were obtained:
[1] = system: myosin ATPase; experiment: Inhibition of contractile force activated by 20% FBS in ring sample; assay type: cell-based; conditions: after prior addition of 20% FBS; 2, 4, 20, and 40 μM BDM
Method: In a related experiment, FBS was added to activate the contractile force and then a myosin ATPase inhibitor was added.

[2] = system: chicken embryo fibroblasts (CEF's) tissue model; experiment: Ring system: isometric force and dynamic stiffness of fibroblast populated matrices (FPM); assay type: cell-based; conditions: for IC50: serial additions, sigmoidal dependence
Method: Chicken embryo fibroblasts (CEF's) isolated from 11-day chicken embryos (Spafas Inc., Preston, Conn.) were maintained in Dulbecco's modified Eagle's medium (DMEM) supplemented with 10% fetal calf serum (FCS), penicillin at 50 units/ml, and streptomycin at 50 microgram/milliliter. The CEF's used to make tissue models were passaged once or twice from primary cultures. Monomeric collagen solubilized in 0.02 M acetic acid (Upstate Biotechnology Inc., Lake Placid, N.Y.) was neutralized at 4° C. with 0.1 N NaOH and mixed with concentrated DMEM stock to yield a final normal DMEM concentration. The fibroblasts suspended by trypsin (FIG. 1a) were mixed with the collagen solution (FIG. 1b), the cell suspension was poured into Teflon casting wells (FIG. 1c), and the wells were incubated at 37° C. with 5% CO2 (FIG. 1d). The collagen polymerized within 15-30 min and fibroblasts were captured within the hydrated collagen gel. The collagen gel formed a ring (3 mm thick, 3 cm diameter) between the inner wall of the cylindrical well and the central mandrel. While in culture the cells compressed this ring, reducing its volume about 10-fold (thickness 200-300 μm). The ring could then be removed from the mandrel (FIG. 1e and FIG. 1f) and mounted on the measuring instrument (FIG. 1g) as described below.
Mechanical measurements were carried out using a ring system. After two days of incubation (serum starvation for the final 12-16 hours), the mandrel was removed from the casting well and the tissue model-ring was removed gently from the mandrel. As shown in FIG. 1 the tissue model-ring was looped over the triangular hook connected to an isometric force transducer (Model 52-9545, Harvard Apparatus, South Natick, Mass.) by a fine, flexible gold chain. The ring was also looped over a horizontal bar connected to a sliding element moveable vertically and linearly by a stepper motor (P/N 1-19-3400 24V DC 1.8° step size, Haward Industry, St. Louis, Mo.) controlled by a micro-stepping driver (IM483 Intelligent Motion Systems) to measure stress and dynamic modulus of the sample. The micro-stepping driver was controlled by a personal computer with software which enabled the stepper motor to achieve smooth motion. An analog-to-digital signal converter (CIO-DAS1602/16, Computer Boards, Inc., Mansfield, Mass.) attached to the computer translated the voltage signal from the isometric force transducer to a digital signal for recording on a data recorder. The stepper motor controlled the stretching of the tissue. Force exerted by or on the tissue was transmitted to the force transducer by the gold chain.
The tissue sample was submerged in 50 ml Hepes-buffered DMEM (pH 7.4) in a thermo-regulated organ bath (Harvard Apparatus, South Natick, Mass.) maintained at 37° C. The two horizontal bars over which the ring was looped were initially set to hold the ring at its original contour length (corresponding to the circumference of the mandrel).
Typically, for stiffness measurements, the tissue model is subjected to a sequence of stretch cycles. In each cycle the tissue model is slowly stretched from 0 to 20% over 30 minutes and the tissue model is then returned at the same rate to its original length by actuation of the stepper motor. The resulting increase in contractile force during the first stretch is substantially larger than the contractile force in subsequent stretches (FIG. 2a). For each stretch after the first stretch there is a further small decrease in maximum contractile force, but the decrease becomes negligible after sufficient pre-stretching. The tissue models produced contractile force in response to the activation of fibroblasts by serum. This contractile force was abolished by disrupting the actin cytoskeleton with cytochalasin D (2 μM) (FIG. 2b).
The amplitude of the force response divided by the stretching amplitude corresponded to the dynamic stiffness of the sample subjected to a preselected sinusoidal length change. […]

[3] = system: smooth muscle cells (SMCs) isolated from rat aorta; experiment: Tissue indentation device: acute time-dependent cell force (Example 18); assay type: cell-based; conditions: measured at 0, 1, 4 and 7 min; 50 nM Norepinephrine, 100 nM Endothelin, 10% FBS (FIG. 34)
Method: To test the system's ability to measure acute time-dependent response after treating the ETs, vasoconstrictors, norepinephrine and endothelin-1 and general constricting agent, fetal bovine serum (FBS) were added to bio-artificial tissues with smooth muscle cells (SMCs) isolated from rat aorta (10^6 SMCs per ml of bio-artificial tissue solution at bio-artificial tissue formation). The force generated by these bio-artificial tissues was measured at 0, 1, 4 and 7 min after adding the agents. […] The total acquisition time for 64 data points was 40 minutes.

[4] = system: rat embryo fibroblast derived cell line (REF52); experiment: Force response of ring samples to physiological activators without stretching; assay type: cell-based; conditions: each drug added to a single tissue ring
Method: Ring samples made using a rat embryo fibroblast derived cell line (REF52) were prepared as described previously herein. The length of the tissue was maintained at a constant level during the test. Each of the drugs indicated in FIG. 15 was added to a single tissue ring.

[5] = system: chicken cardiac cells; experiment: Force response of regular and miniaturized cardiac tissue models; assay type: cell-based; conditions: regular and miniaturized tissues, after calf serum
Method: The sample sizes are determined by the diameters of the mandrels and inner diameters of the wells. […] Miniaturized samples made using chick cardiac cells show twitch responses. Therefore this system can be used to test the effects of pharmaceutical candidates treating cardiac dysfunctions (Insert in FIG. 9b)

[6] = system: NIH 3T3 cells; experiment: Stress relaxation of tension in connective tissue models; assay type: cell-based; conditions: different amounts
Method: The connective tissue models made using NIH 3T3 cells were treated with different amounts of the candidate pharmaceutical, Y27632, a Rho kinase specific inhibitor, which has been tested for reducing tension of smooth muscle strips such as rabbit aortic rings (Nature 239 (1997) 990-993). It is one of the promising drug candidates for treating hypertension in the future. Depending on the agonists used to stimulate the tissue contraction, the degree of reduction in tension is different (FIG. 21). […] Thus, the methods are useful for screening pharmaceutical candidates.

[7] = system: rat adult cardiac fibroblasts (RACFs); experiment: Contractile response of ring samples to agonists, RACFs; assay type: cell-based
Excerpt: (§1) Profiles of contractile response to different agonists applied to ring samples were made using chicken embryo cardiac fibroblasts (CECFs) and rat adult cardiac fibroblasts (RACFs) and are shown in FIGS. 16(a)-(d) and FIGS. 16(e)-(h), respectively.
(§2) Time dependent force profiles after addition of FBS (20% v/v) were different depending on the pretreatment by different agonists.

[8] = system: bio-artificial tissues (extracellular matrix, cellular contractility); experiment: Tissue indentation device: mechanical changes in ECM, EA and pre-tension (Example 17); assay type: cell-based
Method: To verify the sensitivity for detecting changes in the mechanical properties of extracellular matrix (ECM) by the device, different concentrations of collagenase (1, 10, 100 U/ml) were administered to the different sets of bio-artificial tissues at time indicated by the arrow (b) in FIG. 33. All the bio-artificial tissues were treated with Endothelin-1 (50 nM, arrow a) to make sure the cells were responding to a contractile stimuli.
Experimental groups are separated into control (no treatment, filled circle), and treatments with 1, 10, 100 U/ml collagenase indicated by open circle, open triangle, and open square, respectively. After addition of 1 U/ml collagenase, the pre-tension, i.e. cellular contractility, was maintained compared to that of untreated control. […] While the collagenase digested the collagen matrix and affected ECM stiffness, the cell-ECM connection was slowly disrupted. Therefore, the cellular contractility was decreased especially with higher concentrations of collagenase. Nevertheless, the dataset indicated the measurement system sensitively detected incremental changes in ECM mechanics depending on the level of collagen degradation by the increasing concentrations of collagenase. At the 20 min time point (10 min after collagenase treatment), the apparent reduction of EA, but not pre-tension, indicates the EA was more sensitive to treatments affecting the extracellular matrix.

[9] = system: chicken embryo cardiac fibroblasts (CECFs); experiment: Contractile response of ring samples to agonists, CECFs; assay type: cell-based
Excerpt: as §1, §2

[10] = system: tissue models
[11] = system: ring tissue model; experiment: Contractile force developed by ring sample during tissue development (matrix remodeling and compression); assay type: cell-based
Method: The contractile force developed by the ring sample during matrix remodeling and compression can be measured by connecting the ring to the force measuring apparatus as described above within about 1-2 hours after collagen gelation. The cells begin to exert a force on the matrix after this time. Then the increase of force during tissue development (remodeling and compression) is observed over time.
Maximum force is typically reached within 15 to 20 hours. This process was also disrupted by several inhibitors as illustrated in FIGS. 18(b)-(d).

For `CC(=O)C(C)=NO` [BDM, butane dione monoxime], the “fully activated contractile force” value [1] was “reduced, in a dose dependent manner”.
For `C/C1=C/C(=O)O[C@@H]2C[C@@H](CC[C@H](C)/C=C\CC1)O[C@@](O)([C@@H]1CSC(=O)N1)C2` [LA-B, Latrunculin B], the “concentration at which force and dynamic stiffness reached their minimum values” [2] was roughly 600 nM, the “concentration range over which tension and stiffness decrease” value [2] was “single decade” and the “lowest concentration at which force and dynamic stiffness were significantly diminished” value [2] was 40 nM. For the same compound, the “effect on viscosity of the tissues (phase angle δ)” value ([2]; data not shown) was “relatively minor effect”, the IC50 ([2]; read-out: estimated half maximum concentration for reducing the force) was 53 nM and the IC50 ([2]; read-out: estimated half maximum concentration for reducing the stiffness) was 68 nM.
For `NC[C@H](O)c1ccc(O)c(O)c1` [Norepinephrine, norepinephrine], the “cell force (active force) after adding the agent” value [3] was “increased over time”, the “time at which cell force reached its maximum value” [3] was 7 min and the “force response of tissue ring at constant length” value (“force response of tissue ring” below) [4] was “reduced the initial base line force”.
For `C[C@@H](N)[C@H]1CC[C@H](C(=O)Nc2ccncc2)CC1` [Y27632], the “force of cardiac tissue models” value [5] was “decreased” and the “tension of connective tissue models” value [6] was “reduces the tension”.
`CC[C@H](C)[C@H](NC(=O)[C@H](CC(=O)O)NC(=O)[C@H](CC(C)C)NC(=O)[C@H](Cc1c[nH]cn1)NC(=O)[C@@H]1CSSC[C@H](N)C(=O)N[C@@H](CO)C(=O)N[C@H]2CSSC[C@H](NC(=O)[C@H](CCC(=O)O)NC(=O)[C@H](CCCCN)NC(=O)[C@H](CC(=O)O)NC(=O)[C@H](CCSC)NC(=O)[C@H](CC(C)C)NC(=O)[C@H](CO)NC(=O)[C@H](CO)NC2=O)C(=O)N[C@@H](C(C)C)C(=O)N[C@@H](Cc2ccc(O)cc2)C(=O)N[C@@H](Cc2ccccc2)C(=O)N1)C(=O)N[C@H](C(=O)N[C@@H](Cc1c[nH]c2ccccc12)C(=O)O)[C@@H](C)CC` [endothelin, endothelin-1] was tested, and the “cell force (active force) after adding the agent” value [3] was “increased over time”, the “time at which cell force reached its maximum value” [3] was 7 min and the “force response of tissue ring” value [4] was “produce different forces”. The “contractile response of ring” value [7] was “contracted rings”, the “pre-tension (cellular contractility)” value ([8]; Endothelin-1 50 nM) was “increased immediately” and the “contractile response of ring” value [9] was “contracted rings”.
With `CCO` [ethanol] the “force and stiffness of tissue models” value ([10]; 10% solution of ethanol) was “reduces force and stiffness of tissue models significantly” and the “level of baseline force maintained by the viable cells” value ([10]; different dose of ethanol) was “decrease”.
`CO[C@H]1[C@@H](OC)C[C@H](C)[C@@H](OC)C2=CC(=O)C=C(NC(=O)/C(C)=C/C=C\[C@H](OC)[C@@H](OC(N)=O)/C(C)=C/[C@@H]1C)C2=O` [herbimycin A] was tested, and the “maximum force during ring tissue development” value [11] was “reduces the maximum force”.
For `COC(=O)Nc1nc2ccc(C(=O)c3cccs3)cc2[nH]1` [nocodazole], the “maximum force during ring tissue development” value [11] was “reduces the maximum force”.
`CNC[C@H](O)c1cccc(O)c1` [phenylephrine] was tested, and the “force response of tissue ring” value [4] was “reduced the initial base line force”.
For `NC(=O)CC[C@@H]1NC(=O)[C@H](Cc2ccccc2)NC(=O)[C@H](Cc2ccc(O)cc2)NC(=O)[C@@H](N)CSSC[C@@H](C(=O)N2CCC[C@H]2C(=O)N[C@@H](CCCN=C(N)N)C(=O)NCC(N)=O)NC(=O)[C@H](CC(N)=O)NC1=O` [vasopressin], the “force response of tissue ring” value [4] was “produce different forces”, the “contractile response of ring” value [7] was “responded” and the “contractile response of ring” value [9] was “did not response”.
“EGF: epidermal growth factor (NSDSECPLSHDGYCLHDGVCMYIEALDKYACNCVVGYIGERCQYRDLKWWELR; Epidermal growth factor; UniProt P01133 971-1023, looked up)” was tested, and the “contractile response of ring” value [9] was “did not respond to any dose”.
For Thrombin, the “force response of tissue ring” value [4] was “produce different forces”.
“angiotensin II (DRVYIHPF; Angiotensin-2; UniProt P01019 25-32, looked up) [agonist]” was tested, and the “contractile response of ring” value [7] was “responded” and the “contractile response of ring” value [9] was “did not response”.
collagenase was tested, and the “pre-tension (cellular contractility) compared to untreated control” value ([8]; 1 U/ml collagenase, after Endothelin-1 50 nM) was “maintained”, the “EA (tissue stiffness)” value ([8]; 1 U/ml collagenase, about 10 min after treatment) was “began to be reduced” and the “pre-tension (cellular contractility)” value ([8]; 10 U/ml collagenase, for ~10 min) was “didn't reduce the pre-tension significantly”. The “drop of EA (tissue stiffness)” value ([8]; 100 U/ml collagenase, ~10 min after treatment) was “already significant”.
For lysophosphatidic acid [LPA], the “force response of tissue ring” value [4] was “produce different forces”.

Source: patent US8227240B2, “Systems for screening pharmaceutical chemicals” (The Washington University, priority 2001, dated 2012)
